Reference: patent publication US8252764B2, “Compositions and methods of use of targeting peptides against placenta and adipose tissues” (priority 2000, dated 2012)

Columns and labels:
endothelial cells = assay: Endothelial cell migration (chemotaxis) assay with penetratin peptide chimeras; type: cell-based, human; settings: 48-well microchemotaxis chamber
Procedure: FIG. 25. Effect of penetratin peptide chimeras on endothelial cell migration. Cell migration assay were performed, in a 48-well microchemotaxis chamber. Five random high-power fields (magnitude 40×) were counted in each well.
Cell migration assays were performed as follows: 48-well microchemotaxis chambers were used. Polyvinylpyrrolidone-free polycarbonate filters (Nucleopore, Cambridge, Mass.) with 8-μm pores were coated with 1% gelatin for 10 min at room temperature and equilibrated in M199 medium supplemented with 2% FCS. Peptides were placed in the lower compartment of a Boyden chamber in M199 supplemented with 2% FCS, 20 ng/ml VEGF-A (R&D System), and 1 U/ml heparin. Overnight-starved subconfluent cultures were quickly trypsinized, and resuspended in M199 containing 2% FCS at a final concentration of 2×10^6 cells/ml. After the filter was placed between lower and upper chambers, 50 μl of the cell suspension was seeded in the upper compartment. Cells were allowed to migrate for 5 h at 37° C. in a humidified atmosphere with 5% CO2. The filter was then removed, and cells on the upper side were scraped with a rubber policeman. […] Five random high-power fields (magnitude 40×) were counted in each well.
Cell migration was assayed in a 48-well microchemotaxis chamber. […] Five random high-power fields (magnitude 40×) were counted in each well.

HUVECs [1] = assay: Three-dimensional cell culture on Matrigel; type: cell-based, human; settings: HUVECs on three-dimensional matrix gel, not shown
Procedure: Matrigel (Collaborative Research, Bedford, Mass.) was added at 100 μl per well to 48-well tissue culture plates and allowed to solidify for 10 min at 37° C. HUVECs were starved for 24 h in M199 medium supplemented with 2% FCS before being harvested in PBS containing 2.5 mM EDTA. 10^4 cells were gently added to each of the triplicate wells and allowed to adhere to the gel coating for 30 min at 37° C. Then, medium was replaced with indicated concentrations of […] (SEQ ID NO:56) or […] (SEQ ID NO:57) peptides in complete medium. The plates were photographed after 24 h with an inverted microscope (Canon). The assay was repeated three times.

SK-RC-49/APA cells = assay: Phage binding specificity assay on SK-RC-49/APA cells; type: cell-based; settings: soluble peptide, not shown
Procedure: The cell binding assay was performed with an input of 10^9 TU as described for the cell panning. The specificity was confirmed by adding […] (SEQ ID NO:56) peptide to the binding medium in increasing concentrations. For phage binding on immunocaptured APA, wells were blocked for 1 h at room temperature with PBS/3% BSA and incubated with 10^9 TU for 1 h at room temperature in 50 μl PBS/3% BSA. After eight washes in PBS/1% BSA/0.01% Tween-20 and two washes in PBS, phage were rescued by adding 200 μl of exponentially growing K91Kan E. coli. Each experiment was repeated at least three times.

HUVECs [2] = assay: HUVEC chemotaxis assay (Boyden chamber); type: cell-based, human; settings: HUVECs, VEGF-A, not shown
Procedure: FIG. 33. […] (SEQ ID NO:56) inhibits HUVEC migration. HUVECs were stimulated with VEGF-A (10 ng/ml). The assay was performed in a Boyden microchemotaxis chamber, and cells were allowed to migrate through an 8-μm pore filter for 5 h at 37° C. […] (SEQ ID NO:57) (control) and […] (SEQ ID NO:56) peptides were tested at 1 mM concentration. Migrated cells were stained and five high-power fields (magnitude 100×) for each microwell were counted. Error bars are the standard error of the means of triplicate microwells.
A cell migration assay was performed in a 48-well microchemotaxis chamber (NeuroProbe, Gaithersburg, Md.) according to Bussolini et al. (1995). Polyvinylpyrrolidone-free polycarbonate filters (Nucleopore, Cambridge, Mass.) with 8-μm pores were coated with 1% gelatin for 10 min at room temperature and equilibrated in M199 medium supplemented with 2% FCS. […] (SEQ ID NO:56) or control […] (SEQ ID NO:57) peptide (1 mM) was placed in the lower compartment of a Boyden chamber in M199 medium supplemented with 2% FCS and 10 ng/ml VEGF-A (R&D System). Subconfluent cultures that had been starved overnight were harvested in PBS containing 2.5 mM EDTA, washed once in PBS, and resuspended in M199 medium containing 2% FCS at a final concentration of 2×10^6 cells/ml. […] Five random high-power fields (magnitude 100×) were counted in each well. […]

[3] = test system: chicken chorioallantoic membrane (CAM); assay: CAM assay for angiogenesis; type: in vivo
Procedure: In vivo angiogenesis was evaluated by a CAM assay (Ribatti et al., 1994). Fertilized eggs from White Leghorn chickens were maintained in constant humidity at 37° C. On the third day of incubation, a square window was opened in the eggshell and 2-3 ml of albumen was removed to detach the developing CAM from the shell. The window was sealed with a glass plate of the same size and the eggs were returned to the incubator. At day 8, 1 mm^3 sterilized gelatin sponges (Gelfoam, Upjohn Co, Kalamazoo, […]) were adsorbed with VEGF-A (20 ng, R&D System) and either […] (SEQ ID NO:56) or control […] (SEQ ID NO:57) peptide (1 mM) in 3 μl PBS and implanted on the top of the growing CAMs under sterile conditions. CAMs were examined daily until day 12 and photographed in ovo with a Leica stereomicroscope. Capillaries emerging from the sponge were counted. The assay was repeated twice.

[4] = biological target: T1, β5 integrin cytoplasmic domain (Homo sapiens, UniProt P18084); assay: Phage binding to immobilized GST-β5cyto; settings: phage colonies
T1 construct: screenings involving the β5 cytoplasmic domain fusion protein
T1 sequence (P18084 743-799 limits assumed): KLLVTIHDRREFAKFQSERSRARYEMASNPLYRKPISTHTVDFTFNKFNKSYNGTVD
Procedure: FIG. 19. Binding of β5 cytoplasmic domain-selected phage to immobilized proteins. GST fusion proteins or GST alone were coated on microtiter wells at 10 μg/ml and used to bind phage-expressing endostatin binding peptides. […] The data represent the mean colony counts from triplicate wells, with standard error less than 10% of the mean.
(§1) β3 and β5 cytoplasmic domain-binding peptides were isolated by screening multiple phage libraries with recombinant GST fusion proteins that contained either GST-β3cyto or GST-β5cyto coated onto microtiter wells. Immobilized GST was used as a negative control for enrichment during the panning of each cytoplasmic domain. Phage were sequenced from randomly selected clones after three rounds of panning as disclosed elsewhere (Koivunen et al., Biotechnology 13:265-270, 1995; Pasqualini et al., 1995). Distinct sequences were isolated that interacted specifically with the β3 or with the β5 cytoplasmic domains (Table 4). Randomly selected clones from panning rounds II and III were sequenced. Amino acid sequences of the phagemid encoded peptides were deduced from nucleotide sequences. The ratios were calculated by dividing the number of colonies recovered from β3-GST-coated wells and those recovered from GST or BSA.
A similar strategy was used to determine the specificity of the phage isolated in the screenings involving the β5 cytoplasmic domain fusion protein.

[5] = biological target: T2, β3 integrin cytoplasmic domain (Homo sapiens, UniProt P05106); assay: Phage binding to immobilized GST-β3cyto
T2 sequence (P05106 742-788 limits assumed): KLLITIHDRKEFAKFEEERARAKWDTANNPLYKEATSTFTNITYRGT
Procedure: FIG. 18. Binding of β3 cytoplasmic domain-selected phage to immobilized proteins. GST fusion proteins or GST alone were coated on microtiter wells at 10 μg/ml and used to bind phage-expressing endostatin targeting peptides. […] The data represent the mean colony counts from triplicate wells, with standard error of less than 10% of the mean.
as §1, with “Amino acid sequences of the phagemid encoded peptides were deduced from nucleotide sequences.” left out
The specificity of the interaction with β3 or β5 cytoplasmic domains was determined by calculating the ratios of phage bound to the cytoplasmic domain containing-fusion proteins (β3 or β5) versus GST alone (negative control). […]

Sequence: SDNRYIGSW
- effect on endothelial cell migration (endothelial cells): increase cell migration

Sequence: GACVRLSACGA [reference compound]
- formation of capillary-like network (HUVECs [1]): did not affect HUVEC morphogenesis
- competition with CPKVCPRECESNC phage for binding to SK-RC-49/APA cells (SK-RC-49/APA cells): no competitive activity
- effect on cell migration or proliferation (HUVECs [2]): no significant effect on cell migration or proliferation
- BLOOD VESSEL NUMBERS ([3]; VEGF-A 20 ng, peptide 1 mM, mean and standard error, two experiments): 56.5 ± 2.12
- effect on the number of growing vessels ([3]; not shown): no effect on the number of growing vessels

Sequence: GLDTYRGSP
- effect on endothelial cell migration (endothelial cells): increase cell migration

Sequence: CKLWQEDGY
- β5/BSA Ratio ([4]; β5 versus BSA): 665
- β5/GST Ratio ([4]; β5 versus GST): 1.8

Sequence: AGWLYMSWK
- β3/BSA Ratio ([5]; phage colonies recovered from β3-GST-coated wells divided by BSA): 2.4
- β3/GST Ratio ([5]; phage colonies recovered from β3-GST-coated wells divided by GST): 1.8
